Tests used:
[1] = Oral dosing in portal vein-cannulated rats, portal vein plasma; type: in vivo; details: oral dosing of Example 2 (30 and 200 mg/kg), four-hour time period
[2] = system: Serum osteocalcin; test: Serum osteocalcin suppression, 28-day repeat dose mouse model; type: in vivo, Swiss Webster female mice; details: mice
Protocol: The compounds were weighed and suspended in a vehicle of 0.5% methylcellulose/0.025% tween 20 (Sigma-Aldrich, St. Louis, Mo.). Compound suspensions were homogenized using a Polytron PT-3100 tissue homogenizer to create a very fine suspension and were then sonicated for 10 minutes using a water bath sonicator. Aliquots of each suspension were made for daily dosing at 0.2 ml/dose. Swiss Webster female mice, 10-12 weeks old, 28-29 grams, (Taconic, Germantown, N.Y.) were used in accordance with the guidelines of the Institutional Animal Care and Use Committee and in accordance with NIH guidelines on laboratory animal welfare. Mice were acclimated in the Pfizer animal facility for three to seven days prior to being utilized in a study. […] Each treatment group contained 5-10 mice. To establish a dosing regimen for the studies, a pilot pharmacodynamic time course experiment was conducted to quantify TNFα repression after a single ED80 dose.
Body weights were measured on the first and last day of each experiment. Blood samples were obtained after three weeks of dosing for a steady-state pharmacokinetic (PK) analysis. To assess compound effects on LPS-induced TNFα, all mice received an intraperitoneal injection of LPS (Salmonella typhosa, L-7895; Sigma-Aldrich, St. Louis) 2.5 hr after the last dose on day 28. Mice were sacrificed 90 minutes after LPS administration. Serum samples were quantified for osteocalcin and TNFα using the multiplex assays (Linco Research, Inc, St. Charles, Mo.; Luminex 100, Austin, Tex.). Samples were diluted 1:20 and the assay was run according to manufacturer's instructions. The osteocalcin standard was purchased separately (Biomedical Technologies Inc., Stoughton, Mass.). Mice were fasted for 4 hours before serum was collected for TNFα, and osteocalcin levels. For each experiment, outliers were detected by calculating the number of standard deviations from the mean of the group. If the value being examined was more than 2.5 standard deviations from the mean, it was excluded from the rest of the calculations.
The individual mouse percent inhibition values were fit to a four-parameter logistic model using the dose mean for each group.
ED50 and ED80 values were obtained for the various endpoints using a four-parameter logistic fit. For compounds which were tested multiple times, ED50 and ED80 values were obtained using four-parameter logistic fits of the combined data from multiple experiments.

[3] = system: Mouse Collagen-Induced Arthritis (mCIA); test: Therapeutic mouse collagen-induced arthritis (mCIA) model; type: in vivo, Male DBA/J mice; details: Mus musculus; mice, dosing day 34 through day 49; read-out: Therapeutic mCIA (ED80 dose)
Source text: Mouse Collagen-induced arthritis is a commonly used chronic, preclinical model of rheumatoid arthritis in which joint swelling and bone destruction occur following immunization with type II collagen. Reduction of disease incidence and severity has been shown previously to be predictive of disease-modification and signs and symptoms mitigation, respectively, in a clinical setting.
In the therapeutic mCIA model, induction of disease incidence and severity was synchronized via LPS stimulation. Male DBA/J mice were immunized with 100 ug of bovine type II collagen (bCII) on day 0. All mice received an intraperitoneal injection of 20 μg of LPS on day 28 and disease was allowed to develop through day 34. At day 34, all mice had disease (incidence=100%) with an average severity score of seven. Dosing of compounds was initiated in the therapeutic mode on day 34 and continued through day 49. Different treatments were compared by measuring the decrease in incidence (i.e., resolution of disease) and the decrease in severity of paw swelling over time.

[4] = system: house dust mite-induced BAL inflammatory cell influx; test: House dust mite model of asthma, BAL inflammatory cell influx; type: in vivo, Mice; details: 0.1, 1 and 10 mg/kg, p.o., b.i.d.
[5] = system: Cortical bone formation rate (BFR); test: Cortical bone histomorphometry, bone formation rate (BFR); type: in vivo; details: AUC 0-4 hr, mice
Protocol: During the in-life portion of each study, mice received two intraperitoneal (i.p.) injections (20 mg/kg, […]) of calcein (C-0875; Sigma-Aldrich, St. Louis, Mo.) on days 1 and 26 for bone histomorphometry measurements. Calcein incorporates into the bone mineral and allows measurement of bone formation rate. Calcein was dissolved in 2% sodium bicarbonate. During the tissue harvest, the left tibiae were excised and cleaned for cortical histomorphometry measurements. After all skin and muscle were removed, tibiae were placed in 70% ethanol 4° C.) in the dark for a minimum of 24 hours.
Ground transverse sections were used for histomorphometric analysis of cortical bone. Bones were sectioned using a low-speed saw (Isomet, Buehler, Lake Bluff, Ill.) equipped with a diamond wafer blade. The end of each tibia was removed proximal to tibia-fibula synostosis and a […] cross-section was cut. Using a roughened glass plate and a cork, sections were ground to […] until transparent and all labels were distinguishable under a fluorescent microscope. Sections were dehydrated using the following solutions for a minimum of two minutes each: 1) 70% ethanol, 2) 95% ethanol, 3) 100% ethanol, 4) 50/50 ethanol/xylene, and 5) xylene (twice) (#534056; Sigma-Aldrich, St. Louis, Mo.). Sections were mounted using Eukitt Quick Mounting Medium (#03989, Sigma-Aldrich, St. Louis, Mo.) after which coverslip was applied. Using the Osteomeasure Bone Analysis Program (Osteometrics, Inc., Decatur, Ga.), bone formation rate was calculated by tracing the 1st and […] fluorescent labels and the inner and outer perimeter of the bone. Bone formation rate was calculated by the following equation: (Inter-label width/Label interval)*(Labeled perimeter/Bone perimeter). At least five samples were measured from each treatment group in each study.

detection in portal vein plasma samples [1]: detection of Example 1
Serum osteocalcin EAUC50 ([2]; AUC 0-4 hr): 1300 ng·h/mL
Serum osteocalcin EAUC80 ([2]; AUC 0-4 hr): 4200 ng·h/mL
Osteocalcin Suppression (ED80 dose) ([2]; oral gavage 28 days, serum osteocalcin): >10 mg/kg
Cortical bone formation rate (BFR) EAUC50 [5]: 270 ng·h/mL
SMILES: Cc1ncccc1NC(=O)c1ccc2c(c1)CC[C@@H]1C[C@@](O)(C(F)(F)F)CC[C@@]21Cc1ccccc1 [Example 1, (4βS,7R,8αR)-4β-benzyl-7-hydroxy-N-(2-methylpyridin-3-yl)-7-(trifluoromethyl)-4β,5,6,7,8,8α,9,10-octahydrophenanthrene-2-carboxamide]
ED80 [3]: < 2 mg/kg
cell infiltration into BAL fluid [4]: mitigated cell infiltration into BAL fluid dose-dependently

Source: patent publication US7786097B2, “Tricyclic compounds, compositions and methods” (Pfizer Inc., priority 2007, dated 2010)
